The values that follow come from ChEMBL document CHEMBL2331532, “(+)-Laburnamine, a natural selective ligand and partial agonist for the α4β2 nicotinic receptor subtype” (J Nat Prod, 2013).

One experiment is filed under the species Rattus norvegicus. The experiment is described as follows: Selectivity ratio of Ki for alpha7 nAChR in rat hippocampus to Ki for alpha4beta2 nAChR in rat cortex. It counts as tissue-based.
Experiment [1] in a line: Selectivity ratio of Ki for human alpha3beta4 nAChR to Ki for alpha4beta2 nAChR in rat cortex.
Experiment [2] addresses T1, Acetylcholine receptor; alpha1/beta1/delta/gamma (Homo sapiens, UniProt P02708+P07510+P11230+Q07001). The experiment is described as follows: Displacement of [125I]alpha-bungarotoxin from human alpha2betagammadelta nAChR at 10 uM. The class given is protein-complex assay.
The target of experiment [3] is T2, Neuronal acetylcholine receptor; alpha4/beta2 (Rattus norvegicus) (UniProt P09483+P12390). Kind of experiment: (§1) Antagonist activity at alpha4beta2 nAChR in rat brain striatal slices assessed as inhibition of nicotine-induced release of [3H]dopamine release. The class given is tissue-based. Particulars: concentration not given here.
For experiment [4], the target named is T3, Neuronal acetylcholine receptor; alpha4/beta2 (Rattus norvegicus, UniProt P09483+P12390). Described as §1. The class given is tissue-based.
The target in experiment [5] is T2, Neuronal acetylcholine receptor; alpha4/beta2 (Rattus norvegicus). Kind of experiment: Agonist activity at alpha4beta2 nAChR in rat brain striatal slices assessed as release of [3H]dopamine release relative to nicotine. It counts as tissue-based.
The target of experiment [6] is T3, Neuronal acetylcholine receptor; alpha4/beta2. Kind of experiment: Agonist activity at alpha4beta2 nAChR in rat brain striatal slices assessed as release of [3H]dopamine release. It counts as tissue-based.
The target in experiment [7] is T1, Acetylcholine receptor; alpha1/beta1/delta/gamma. The experiment is described as follows: Displacement of [125I]alpha-bungarotoxin from human alpha2betagammadelta nAChR. The class given is protein-complex assay. (Loss of bound radioactivity is the signal in a displacement assay; it reports binding, not function.)
For experiment [8], the target named is Neuronal acetylcholine receptor subunit alpha-7 (Rattus norvegicus, UniProt Q05941). Kind of experiment: Displacement of [125I]alpha-bungarotoxin from alpha7 nAChR from rat hippocampus. It counts as tissue-based.
Experiment [9] has as its target Neuronal acetylcholine receptor; alpha3/beta4 (Homo sapiens, UniProt P30926+P32297). Kind of experiment: Displacement of [3H]epibatidine from human alpha3beta4 nAChR expressed in HEK cells. It counts as cell-based, HEK293.
Experiment [10] addresses T3, Neuronal acetylcholine receptor; alpha4/beta2. Kind of experiment: Displacement of [3H]epibatidine from alpha4beta2 nAChR in rat cortex.
In experiment [11] the target is T2, Neuronal acetylcholine receptor; alpha4/beta2 (Rattus norvegicus). The experiment is described as follows: Displacement of [3H]epibatidine from alpha4beta2 nAChR in rat cortex up to 100 uM.
The target in experiment [12] is Neuronal acetylcholine receptor subunit alpha-7 (Homo sapiens, UniProt P36544). The experiment is described as follows: Displacement of [3H]methyllycaconitine from alpha7 nAChR (unknown origin).
Experiment [13] has as its target Neuronal acetylcholine receptor; alpha4/beta2 (Homo sapiens, UniProt P17787+P43681). Kind of experiment: Displacement of [3H]epibatidine from alpha4beta2 nAChR (unknown origin). It counts as protein-complex assay.

One may read the inhibition as the percentage by which the read-out fell short of the control. By IC50 is commonly meant the concentration needed to halve the response being measured. Broadly, the EC50 is the concentration at which the effect is half-maximal. The term Ki denotes the equilibrium dissociation constant of an inhibitor or competing ligand from its target.

Structures are written as SMILES. Calls of active or inactive are those of the source. No cut-off for these calls is given here.

Neuronal acetylcholine receptor subunit alpha-7 (Rattus norvegicus, UniProt Q05941), sequence (Q05941 whole entry): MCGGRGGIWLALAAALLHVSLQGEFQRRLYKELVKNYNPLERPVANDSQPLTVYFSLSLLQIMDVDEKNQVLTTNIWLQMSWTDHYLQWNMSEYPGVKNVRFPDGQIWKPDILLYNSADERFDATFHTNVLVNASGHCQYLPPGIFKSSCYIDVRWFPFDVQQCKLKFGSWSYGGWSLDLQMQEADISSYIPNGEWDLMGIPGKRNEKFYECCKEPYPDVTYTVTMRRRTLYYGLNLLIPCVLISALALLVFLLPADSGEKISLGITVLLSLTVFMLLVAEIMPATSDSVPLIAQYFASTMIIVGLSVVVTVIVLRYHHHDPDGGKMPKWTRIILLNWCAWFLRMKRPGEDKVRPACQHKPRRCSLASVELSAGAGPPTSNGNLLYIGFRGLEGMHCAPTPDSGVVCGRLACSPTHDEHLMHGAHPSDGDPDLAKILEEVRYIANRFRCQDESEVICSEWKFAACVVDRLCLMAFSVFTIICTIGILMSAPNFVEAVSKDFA
T3 sequence (P09483 whole entry): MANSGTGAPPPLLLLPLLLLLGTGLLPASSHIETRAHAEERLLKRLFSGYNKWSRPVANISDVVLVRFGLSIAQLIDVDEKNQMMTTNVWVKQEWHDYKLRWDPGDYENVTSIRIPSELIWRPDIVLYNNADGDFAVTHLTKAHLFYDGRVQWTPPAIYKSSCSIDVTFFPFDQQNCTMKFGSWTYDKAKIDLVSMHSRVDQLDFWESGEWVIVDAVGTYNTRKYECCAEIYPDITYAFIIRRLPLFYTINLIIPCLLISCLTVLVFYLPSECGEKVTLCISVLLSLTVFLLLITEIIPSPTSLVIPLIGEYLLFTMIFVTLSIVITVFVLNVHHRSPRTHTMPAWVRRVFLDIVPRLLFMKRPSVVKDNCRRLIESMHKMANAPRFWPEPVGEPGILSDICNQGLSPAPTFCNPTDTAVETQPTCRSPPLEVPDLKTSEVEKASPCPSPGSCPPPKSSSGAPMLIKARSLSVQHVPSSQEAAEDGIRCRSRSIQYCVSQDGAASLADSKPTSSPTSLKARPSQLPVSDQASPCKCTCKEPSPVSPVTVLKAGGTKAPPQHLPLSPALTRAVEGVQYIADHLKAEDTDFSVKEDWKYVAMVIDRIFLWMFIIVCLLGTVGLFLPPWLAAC
T3 sequence (P12390 whole entry): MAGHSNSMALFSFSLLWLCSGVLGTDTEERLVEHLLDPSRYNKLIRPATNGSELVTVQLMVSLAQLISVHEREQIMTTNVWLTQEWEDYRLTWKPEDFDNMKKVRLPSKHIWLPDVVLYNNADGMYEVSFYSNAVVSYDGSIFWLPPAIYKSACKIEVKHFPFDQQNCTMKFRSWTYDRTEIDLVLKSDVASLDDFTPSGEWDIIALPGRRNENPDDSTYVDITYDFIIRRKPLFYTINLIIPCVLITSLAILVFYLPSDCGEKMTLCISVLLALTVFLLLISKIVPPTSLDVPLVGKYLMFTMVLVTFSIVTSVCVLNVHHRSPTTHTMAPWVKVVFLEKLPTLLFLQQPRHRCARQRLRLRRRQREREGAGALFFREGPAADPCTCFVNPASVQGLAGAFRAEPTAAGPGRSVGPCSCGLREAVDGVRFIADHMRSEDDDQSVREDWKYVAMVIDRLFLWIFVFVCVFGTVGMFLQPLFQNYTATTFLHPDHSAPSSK
Neuronal acetylcholine receptor; alpha3/beta4, sequence (P30926 whole entry): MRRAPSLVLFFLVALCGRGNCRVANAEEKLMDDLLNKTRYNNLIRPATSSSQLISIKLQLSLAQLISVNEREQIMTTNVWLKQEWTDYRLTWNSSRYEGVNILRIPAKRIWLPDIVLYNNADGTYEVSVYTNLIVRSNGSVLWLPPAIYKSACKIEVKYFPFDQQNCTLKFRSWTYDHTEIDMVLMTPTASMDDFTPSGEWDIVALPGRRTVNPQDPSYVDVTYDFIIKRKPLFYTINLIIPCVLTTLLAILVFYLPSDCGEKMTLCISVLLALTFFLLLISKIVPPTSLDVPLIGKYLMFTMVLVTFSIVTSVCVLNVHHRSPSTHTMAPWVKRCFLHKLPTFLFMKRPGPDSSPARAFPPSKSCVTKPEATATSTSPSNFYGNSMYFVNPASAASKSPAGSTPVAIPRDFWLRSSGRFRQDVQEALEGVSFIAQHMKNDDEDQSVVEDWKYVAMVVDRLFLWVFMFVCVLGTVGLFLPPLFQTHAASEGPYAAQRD
Neuronal acetylcholine receptor; alpha3/beta4, sequence (P32297 whole entry): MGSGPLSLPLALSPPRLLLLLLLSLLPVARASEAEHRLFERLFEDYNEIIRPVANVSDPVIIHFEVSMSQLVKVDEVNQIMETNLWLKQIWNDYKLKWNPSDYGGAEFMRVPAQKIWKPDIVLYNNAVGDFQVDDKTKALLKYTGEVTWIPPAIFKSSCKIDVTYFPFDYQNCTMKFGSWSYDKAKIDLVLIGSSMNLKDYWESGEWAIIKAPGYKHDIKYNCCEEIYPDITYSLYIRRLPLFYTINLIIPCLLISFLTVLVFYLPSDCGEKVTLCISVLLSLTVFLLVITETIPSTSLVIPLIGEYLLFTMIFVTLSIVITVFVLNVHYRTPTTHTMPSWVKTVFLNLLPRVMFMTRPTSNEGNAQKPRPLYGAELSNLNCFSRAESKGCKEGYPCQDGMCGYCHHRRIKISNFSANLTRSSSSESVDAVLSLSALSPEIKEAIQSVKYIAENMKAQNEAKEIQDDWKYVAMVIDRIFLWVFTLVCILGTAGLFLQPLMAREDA
T1 sequence (P02708 whole entry): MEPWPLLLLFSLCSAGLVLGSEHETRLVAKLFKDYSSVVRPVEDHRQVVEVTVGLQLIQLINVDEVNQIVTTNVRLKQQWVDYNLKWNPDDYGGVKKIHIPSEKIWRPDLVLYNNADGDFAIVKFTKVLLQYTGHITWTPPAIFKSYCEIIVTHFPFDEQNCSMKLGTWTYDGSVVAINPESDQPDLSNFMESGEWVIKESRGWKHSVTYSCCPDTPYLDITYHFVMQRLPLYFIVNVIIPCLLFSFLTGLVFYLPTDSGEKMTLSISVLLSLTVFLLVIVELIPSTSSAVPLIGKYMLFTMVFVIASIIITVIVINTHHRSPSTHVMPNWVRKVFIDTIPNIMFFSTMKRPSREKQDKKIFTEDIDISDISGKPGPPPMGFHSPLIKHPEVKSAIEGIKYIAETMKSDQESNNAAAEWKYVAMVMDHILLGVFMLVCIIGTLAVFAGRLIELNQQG
T1 sequence (P07510 whole entry): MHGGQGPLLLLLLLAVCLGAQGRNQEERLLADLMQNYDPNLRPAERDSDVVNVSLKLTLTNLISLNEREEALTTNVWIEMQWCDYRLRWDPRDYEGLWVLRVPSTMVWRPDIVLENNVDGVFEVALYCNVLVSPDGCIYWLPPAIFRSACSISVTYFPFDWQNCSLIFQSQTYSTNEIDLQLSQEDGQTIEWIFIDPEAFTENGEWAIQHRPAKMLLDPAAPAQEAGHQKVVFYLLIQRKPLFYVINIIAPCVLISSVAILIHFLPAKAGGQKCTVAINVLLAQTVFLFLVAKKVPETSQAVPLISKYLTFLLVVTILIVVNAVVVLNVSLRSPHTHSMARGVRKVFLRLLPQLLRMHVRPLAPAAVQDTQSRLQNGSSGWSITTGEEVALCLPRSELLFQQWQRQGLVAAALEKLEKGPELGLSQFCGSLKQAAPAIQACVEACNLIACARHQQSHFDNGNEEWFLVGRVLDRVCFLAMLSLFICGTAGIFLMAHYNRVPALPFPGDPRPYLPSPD
T1 sequence (P11230 whole entry): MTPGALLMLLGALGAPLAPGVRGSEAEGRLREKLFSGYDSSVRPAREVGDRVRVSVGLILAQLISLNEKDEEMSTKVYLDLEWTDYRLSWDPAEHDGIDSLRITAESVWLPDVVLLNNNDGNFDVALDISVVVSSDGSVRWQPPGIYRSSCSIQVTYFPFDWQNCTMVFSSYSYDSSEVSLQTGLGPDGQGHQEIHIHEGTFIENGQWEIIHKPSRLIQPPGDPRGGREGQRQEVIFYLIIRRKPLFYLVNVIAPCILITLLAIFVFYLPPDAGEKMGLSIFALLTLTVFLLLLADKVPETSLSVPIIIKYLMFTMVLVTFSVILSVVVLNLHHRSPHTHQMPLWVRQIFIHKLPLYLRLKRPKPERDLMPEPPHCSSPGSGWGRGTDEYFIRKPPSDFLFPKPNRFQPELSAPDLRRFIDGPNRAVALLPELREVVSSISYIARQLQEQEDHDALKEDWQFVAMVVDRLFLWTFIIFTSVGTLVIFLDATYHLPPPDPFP
T1 sequence (Q07001 whole entry): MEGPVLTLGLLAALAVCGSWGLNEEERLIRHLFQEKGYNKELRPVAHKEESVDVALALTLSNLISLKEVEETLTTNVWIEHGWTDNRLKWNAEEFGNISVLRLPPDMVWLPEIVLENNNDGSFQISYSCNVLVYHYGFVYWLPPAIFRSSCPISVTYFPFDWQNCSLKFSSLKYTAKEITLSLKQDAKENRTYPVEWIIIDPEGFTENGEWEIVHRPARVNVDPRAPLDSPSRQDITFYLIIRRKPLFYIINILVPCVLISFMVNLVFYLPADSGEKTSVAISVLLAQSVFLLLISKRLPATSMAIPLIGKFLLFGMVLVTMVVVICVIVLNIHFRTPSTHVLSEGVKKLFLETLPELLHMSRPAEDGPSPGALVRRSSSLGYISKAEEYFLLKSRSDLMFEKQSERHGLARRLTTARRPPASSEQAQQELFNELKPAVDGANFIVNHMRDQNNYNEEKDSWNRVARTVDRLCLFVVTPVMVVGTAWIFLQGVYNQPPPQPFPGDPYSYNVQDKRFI

Turning to `CCC(C)C(=O)N[C@H]1CCN2CCC[C@H]12` (stereo not given in full), the Ratio Ki in the experiment listed under Rattus norvegicus was found to be 136; in experiment [1], 126. For the same compound, the Activity in experiment [2] amounted to 5%. The inhibition in [3] is 46%. For the same compound, the IC50 in [4] is 1.6 µM. For the same compound, the Efficacy in experiment [5] was 43%. In [6], the EC50 turned out to be 5.8 µM. In addition, the Ki in experiment [7] is above 10 µM; in experiment [8], 40 µM; in experiment [9], 37 µM; in experiment [10], 0.29 µM.

With `O=c1cccc2n1C[C@@H]1CNC[C@H]2C1` [CYTISINICLINE], the results for the Ki in experiment [8], in experiment [9] and in experiment [10] were 0.23 µM, 0.28 µM and 0.0021 µM, respectively.

Take `CC(C)C(=O)N[C@@H]1CCN2CCCC[C@@H]12` (racemic): the Ki was 29 µM in [8] and 100 µM in experiment [10].

For `CC(C)C(=O)N[C@H]1CCN2CCCC[C@@H]12` (racemic), the Ki in [8] came out at 26 µM; in experiment [10], 283 µM.

As for `CCC(=O)N[C@H]1CCCN2CCCC[C@H]12` (racemic), the Ki in experiment [10] came out at 6.15 µM.

With `CC(C)C(=O)N[C@H]1CCCN2CCCC[C@H]12` (racemic), the affinity in experiment [10], expressed as Ki, was 6.05 µM.

In the case of `CC(=O)N[C@H]1CCCN2CCCC[C@@H]12`, in [11], the outcome was inactive.

With `CCC(=O)N[C@H]1CCCN2CCCC[C@@H]12` (racemic), the Ki in experiment [10] turned out to be 4.44 µM.

In experiment [10], `CC(C)C(=O)N[C@H]1CCCN2CCCC[C@@H]12` (racemic) displayed a Ki of 6.81 µM.

Take `CC(=O)C1=CC[C@@H]2CC[C@H]1N2`: the Ki turned out to be 100 µM in experiment [12] and 0.094 µM in [13].
